From US20080249043A1, “Methods and Compositions Involving Protein Kinase C-Delta” (priority 2004, published 2008)

Assays:
Assay type in all cases: cell-based
PLS3 = PLS3 threonine phosphorylation: Ni-bead pulldown of His-tagged PLS3, Western blot with PT antibody, HeLa cells; settings: HeLa cells with His-tagged PLS3, AD198 0, 2, 4 and 6 h
Description: Pulldown of His-tagged proteins from transfected HeLa cells—Transfected HeLa cells were washed with ice-cold phosphate-buffered saline (PBS) and incubated in the lysis buffer (50 mM NaH2PO4, 500 mM NaCl, 20 mM imidazole, 1% Triton X-100, 20 mM 2-mercaptoethanol, pH8.0) for 5 min and sonicated briefly on ice. The lysates were centrifuged at 10,000×g for 10 min at 4° C. The supernatant was saved and the protein concentration was measured with the Bio-Rad protein assay (Bio-Rad Laboratories, Hercules, Calif.) and adjusted to same concentrations for each sample. The supernatants were incubated with Ni-beads on a shaker for 2 h at 4° C. Beads were then pelleted at 800×g for 2 min at 4° C. and washed with ice-cold wash buffer (50 mM NaH2PO4, 500 mM NaCl, 20 mM imidazole, 1% Triton X-100, pH8.0) for five times. Beads were resuspended in SDS sample buffer and analyzed by Western blotting.
Western blot analysis—Equal amounts of protein were analyzed by 10% SDS-PAGE and electrotransferred to Immobilon-P membranes (Millipore Corporation, Bedford, Mass.). Monoclonal PKC-δ, PT, and β-actin and polyclonal VDAC antibodies were used at 1:1,000 and polyclonal PLS3 antibody was used at 1:2,000 for immunoblotting. Secondary anti-mouse or anti-rabbit antibodies conjugated with horseradish peroxidase were used at 1:2,000 and incubated with the membrane for 1 h at room temperature. […]

[1] = tested on: mitochondria from HeLa cells; assay: tBid-binding capacity of mitochondria isolated from HeLa cells (FITC-tBid(G94E)); settings: 5 μM AD198 4 h, versus DMSO-treated control cells
Description: (a) Increased tBid-binding capacity by AD198. Mitochondria were isolated from HeLa cells treated with 5 μM AD198 or DMSO as control for 4 h. Mitochondria (50 μg by protein) were incubated with 0, 10, 20, 60 and 100 ng/μl FITC-tBid(G94E) in total volume 50 μl for […] followed by washing to remove unbounded probes. The fluorescent intensity was quantified with Bio-Tek microplate reader. Error bars indicate standard deviations of three independent experiments. (b) Dose response with mitochondria. Various amounts of mitochondria in (a) were incubated with 10 ng/μl tBid(G94E)-FITC as in (a). The fluorescent intensity of the washed mitochondria was quantified with Bio-Tek microplate reader. (c) Expression of PLS3 or PLS3(T21D) in selected HeLa cells. […] The tBid-binding capacity of the mitochondria from each cells were analyzed as in (a). […] Mitochondria were isolated from cells in (c) and analyzed as in (b).
Analysis of the tBid-binding capacity of mitochondria—Isolated mitochondria were incubated with FITC-tBid(G94E) in 50 μl reaction buffer (250 mM sucrose, 20 mM HEPES, 10 mM KCl, 3 mM KH2PO4, 1.5 mM MgCl2, 1 mM EGTA, 0.5% mg/ml BSA, PH 7.4) for 30 min at room temperature. Mitochondria were pelleted at 10,000×g and washed extensively with the reaction buffer to remove unbound FITC-tBid(G94E) and the fluorescence intensity was quantified with Bio-Tek microplate reader.

HeLa cells = assay: CL distribution in mitochondria by NAO staining and flow cytometry in HeLa cells; settings: 5 μM AD198 4 h
Description: (a) HeLa cells were treated with 5 μM AD198 or DMSO as control for 4 h. Cells were stained with different concentrations of NAO and the median fluorescent intensity was determined by flow cytometry. (b) The median fluorescent intensity value of control cells stained with 35 μM NAO was considered as 100% and used to calculate the percentages in each NAO concentration. Results were average of two independent experiments. (c) After transfection for 48 h, HeLa-control, HeLa-PLS3 and HeLa-PLS3(T21D) cells were stained with different concentrations of NAO and the median fluorescent intensity was determined by flow cytometry. The median fluorescent intensity value of 35 μM NAO was considered as 100% and used to calculate the percentage in each NAO concentration. Results were average of two independent experiments.
Analysis of CL distribution in the mitochondria outer membrane—NAO was used to determine the distribution of CL in mitochondria (Garcia Fernandez, et al. Anal Biochem 328:174-180 (2004)). When NAO binds CL at 2:1 ratio (in the saturated state), fluorescence emission occurs at 630 nm. When cells were incubated with increasing concentrations of NAO, NAO saturates CL in the outer member first and then the inner member of mitochondria. Lower concentrations of NAO (2.5-12 μM) were used to saturate CL in the mitochondrial outer member and to measure the amount of CL in that compartment. […]

CCCCC(=O)OCC(=O)[C@]1(O)Cc2c(O)c3c(c(O)c2[C@@H](O[C@H]2C[C@H](NCc4ccccc4)[C@H](O)[C@H](C)O2)C1)C(=O)c1c(OC)cccc1C3=O [AD198, N-benzyladriamycin-14-valerate]
threonine phosphorylation of PLS3 (PLS3): steadily increased
tBid-binding capacity of mitochondria [1]: significantly higher tBid-binding capacity
absolute NAO fluorescence (amount of CL) (HeLa cells; HeLa cells): decrease in absolute NAO fluorescence
percentage of CL in the outer membrane (HeLa cells; NAO concentrations lower than 9 μM): higher percentage of CL than control cells
